Measured values from patent US5096919A, “Pyrrolylphenyl-substituted hydroxamic acid derivatives” (Ciba-Geigy Corporation, priority 1989, dated 1992).

Key:
[1] = system: 5-lipoxygenase; assay: Ex vivo inhibition of A-23187-stimulated LTB4 formation in whole blood after oral administration; conditions: dose of about 1 mg/kg p.o. to the dog
Description: Furthermore, the inhibition of 5-lipoxygenase is determined after oral or i.v. administration to rats or dogs by measuring ex vivo in whole blood the decrease of A-23187-stimulated LTB4 formation as compared to non-treated control animals.
(§1) Illustrative of the invention, the compound of example 1, (E)-3-[4-(2,5-dimethyl-1H-pyrrol-1-yl)-phenyl]-N-hydroxy-N-methyl-2-propenamide, inhibits the formation of 5-HETE [(5S)-5-hydroxy-6,8,11,14-eicosa-tetraenoic acid] and leukotriene B4 (LTB4, 5,12-dihydroxy-6,8,10,14-eicosatetraenoic acid) in A-23187-stimulated guinea pig polymorphonuclear leukocytes, e.g. at an IC50 of about 0.7 micromolar (7×10^-7 M).

[2] = system: rat pleurisy model of inflammation; assay: Carrageenin-induced pleurisy model of inflammation; type: in vivo; conditions: 10 mg/kg p.o. at -1, 6, 24 and 45 hours relative to carrageenin injection, 48 hours after injection
[3] = target: T1, 5-lipoxygenase (Cavia porcellus, UniProt A0A286X958); assay: Inhibition of 5-HETE and LTB4 synthesis in A-23187-stimulated guinea pig polymorphonuclear leukocytes; type: cell-based; conditions: also printed as 7×10^-7 M, read-out: IC50 for inhibition of the formation of 5-HETE and leukotriene B4 (LTB4)
T1 construct: in A-23187-stimulated guinea pig polymorphonuclear leukocytes; endogenous in cells; host or cells: guinea pig polymorphonuclear leukocytes
T1 sequence (A0A286X958 1-674): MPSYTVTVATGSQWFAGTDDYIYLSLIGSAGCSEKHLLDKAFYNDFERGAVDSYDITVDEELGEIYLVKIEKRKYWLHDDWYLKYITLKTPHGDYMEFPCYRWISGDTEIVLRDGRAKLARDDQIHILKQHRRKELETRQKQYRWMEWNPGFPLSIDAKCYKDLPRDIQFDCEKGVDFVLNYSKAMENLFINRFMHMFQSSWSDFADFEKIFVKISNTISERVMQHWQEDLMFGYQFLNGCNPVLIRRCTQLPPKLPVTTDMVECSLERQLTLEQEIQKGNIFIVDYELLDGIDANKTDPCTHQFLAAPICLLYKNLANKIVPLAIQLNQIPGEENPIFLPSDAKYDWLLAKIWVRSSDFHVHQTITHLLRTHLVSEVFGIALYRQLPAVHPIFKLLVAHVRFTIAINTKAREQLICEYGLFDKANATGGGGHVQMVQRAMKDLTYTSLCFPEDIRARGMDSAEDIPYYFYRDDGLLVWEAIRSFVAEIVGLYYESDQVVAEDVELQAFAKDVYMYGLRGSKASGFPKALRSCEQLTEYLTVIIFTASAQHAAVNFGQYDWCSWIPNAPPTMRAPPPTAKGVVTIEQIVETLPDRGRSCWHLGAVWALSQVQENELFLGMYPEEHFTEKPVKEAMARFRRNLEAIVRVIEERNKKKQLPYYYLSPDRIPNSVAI
Description: 5-Lipoxygenase inhibition is determined e.g. by measuring the percent inhibition of the synthesis of 5-HETE [(5S)-5-hydroxy-6,8,11,14-eicosa-tetraenoic acid] and leukotriene B4 (LTB4, 5,12-dihydroxy-6,8,10,14-eicosatetraenoic acid) in A-23187-stimulated guinea pig polymorphonuclear leukocytes, essentially according to radiometric thin-layer chromatographic assays described by Walker and Dawson (J. Pharm. Pharmacol. 31: 778, 1979) and Jakschik and Lee (Nature 287: 51, 1980) used to measure the formation of 5-HETE and LTB4 -like products from ^14 C-arachidonic acid. IC50 values are determined graphically as the concentration of test compound at which the synthesis of 5-HETE and LTB4 -like products is reduced to 50% of their respective control values.
as §1

## Cc1ccc(C)n1-c1ccc(/C=C/C(=O)N(C)O)cc1 [Example 1, (E)-3-[4-(2,5-dimethyl-1H-pyrrol-1-yl)-phenyl]-N-hydroxy-N-methyl-2-propenamide]
[1]
  inhibition of LTB4 formation as determined ex vivo: 50%
[2]
  cell count of leukocytes: lowers the cell count of leukocytes
  inhibition of exudate volume: causes inhibition of exudate volume
[3]
  IC50: ~700 nM
